What was measured:
Type in all cases: in vivo
[1] = tested on: barnyardgrass (Echinochloa crus-galli); assay: Test A preemergence soil spray, visual injury rating 0-100; conditions: 10 days
Method in brief: (§1)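 Preemergence directed soil spray or postemergence spray (2-10 cm, 1-2 leaf); loam/sand mix; compound in non-phytotoxic solvent + surfactant. Greenhouse, 10 d. Visual injury vs untreated, 0 = none, 100 = complete control.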

[2] = tested on: blackgrass (Alopecurus myosuroides); assay: as above; conditions: 10 days
Method in brief: as §1

corn (Zea mays) [3] = assay: as above; conditions: 10 days
Method in brief: as §1

[4] = tested on: green foxtail (Setaria viridis); assay: as above; conditions: 10 days
Method in brief: as §1

kochia (Bassia scoparia) [5] = assay: as above; conditions: 10 days
Method in brief: as §1

[6] = tested on: oat, wild (wild oat, Avena fatua); assay: as above; conditions: 10 days
Method in brief: as §1

[7] = tested on: palmer (palmer amaranth, palmer pigweed, Amaranthus palmeri); assay: as above; conditions: 10 days
Method in brief: as §1

[8] = tested on: ragweed (common ragweed, Ambrosia artemisiifolia); assay: as above; conditions: 10 days
Method in brief: as §1

[9] = tested on: ryegrass, Italian (italian ryegrass, Lolium multiflorum); assay: as above; conditions: 10 days
Method in brief: as §1

soybean (Glycine max) [10] = assay: as above; conditions: 10 days
Method in brief: as §1

[11] = tested on: wheat (Triticum aestivum); assay: as above; conditions: 10 days
Method in brief: as §1

[12] = tested on: barnyardgrass (Echinochloa crus-galli); assay: Test A postemergence application, visual injury rating 0-100
Method in brief: as §1

[13] = tested on: blackgrass (Alopecurus myosuroides); assay: as above
Method in brief: as §1

corn (Zea mays) [14] = assay: as above
Method in brief: as §1

[15] = tested on: galium (catchweed bedstraw, Galium aparine); assay: as above
Method in brief: as §1

[16] = tested on: green foxtail (Setaria viridis); assay: as above
Method in brief: as §1

[17] = tested on: horseweed (Erigeron canadensis); assay: as above
Method in brief: as §1

kochia (Bassia scoparia) [18] = assay: as above
Method in brief: as §1

[19] = tested on: oat, wild (wild oat, Avena fatua); assay: as above
Method in brief: as §1

[20] = tested on: palmer (palmer amaranth, palmer pigweed, Amaranthus palmeri); assay: as above
Method in brief: as §1

[21] = tested on: ragweed (common ragweed, Ambrosia artemisiifolia); assay: as above
Method in brief: as §1

[22] = tested on: ryegrass, Italian (italian ryegrass, Lolium multiflorum); assay: as above
Method in brief: as §1

soybean (Glycine max) [23] = assay: as above
Method in brief: as §1

[24] = tested on: wheat (Triticum aestivum); assay: as above
Method in brief: as §1

[25] = tested on: barnyardgrass (Echinochloa crusgalli); assay: Test B flooded paddy test, visual plant response rating 0-100; conditions: 250 g ai/ha, Flood, applied to paddy water, evaluated after 13 days
Method in brief: (§2)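 In this flooded assay, 2-leaf seedlings received compound through the water layer, kept at 3 cm over the soil. Plants were held 13 days in a greenhouse and then visually compared with control pots.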

[26] = tested on: ducksalad (Heteranthera limosa); assay: as above; conditions: 250 g ai/ha, Flood, applied to paddy water, evaluated after 13 days
Method in brief: as §2

rice (Oryza sativa) = assay: as above; conditions: 250 g ai/ha, Flood, applied to paddy water, evaluated after 13 days
Method in brief: as §2

[27] = tested on: sedge, umbrella (small-flower umbrella sedge, Cyperus difformis); assay: as above; conditions: 250 g ai/ha, Flood, applied to paddy water, evaluated after 13 days
Method in brief: as §2

[28] = 62 g ai/ha, 0 = no effect, 100 = complete control
[29] = 62 g ai/ha, postemergence, 10 days, 0 = no effect, 100 = complete control
[30] = Postemergence, 16 g ai/ha, greenhouse 10 days, 0 no effect, 100 complete control

Structure (SMILES): C=CC1(C(=O)NC2CC(C(=O)OC)C2)CN(c2cc(F)cc(F)c2)C(=O)O1 (stereo not shown) [Compound 174]
- Barnyardgrass plant response rating ([1]; 16 g ai/ha, 0 to 100 scale): 0
- Barnyardgrass plant response rating (0-100) [1, 28]: 0
- Blackgrass plant response rating ([2]; 16 g ai/ha, 0 to 100 scale): 0
- Blackgrass plant response rating (0-100) [2, 28]: 0
- Corn plant response rating (corn (Zea mays) [3]; 16 g ai/ha, 0 to 100 scale): 0
- Corn plant response rating (0-100) (corn (Zea mays) [3]; [28]): 0
- Foxtail, Green plant response rating ([4]; 16 g ai/ha, 0 to 100 scale): 0
- Foxtail, Green plant response rating (0-100) [4, 28]: 0
- Kochia plant response rating (kochia (Bassia scoparia) [5]; 16 g ai/ha, 0 to 100 scale): 0
- Kochia plant response rating (0-100) (kochia (Bassia scoparia) [5]; [28]): 0
- Oat, Wild plant response rating ([6]; 16 g ai/ha, 0 to 100 scale): 0
- Oat, Wild plant response rating (0-100) [6, 28]: 0
- Pigweed, Palmer plant response rating ([7]; 16 g ai/ha, 0 to 100 scale): 0
- Pigweed, Palmer plant response rating (0-100) [7, 28]: 0
- Ragweed plant response rating ([8]; 16 g ai/ha, 0 to 100 scale): 0
- Ragweed plant response rating (0-100) [8, 28]: 0
- Ryegrass, Italian plant response rating ([9]; 16 g ai/ha, 0 to 100 scale): 0
- Ryegrass, Italian plant response rating (0-100) [9, 28]: 0
- Soybean plant response rating (soybean (Glycine max) [10]; 16 g ai/ha, 0 to 100 scale): 0
- Soybean plant response rating (0-100) (soybean (Glycine max) [10]; [28]): 0
- Wheat plant response rating ([11]; 16 g ai/ha, 0 to 100 scale): 0
- Wheat plant response rating (0-100) [11, 28]: 0
- Barnyardgrass plant response rating (0-100) [12, 29]: 20
- Barnyardgrass plant response rating (0 to 100 scale) [12, 30]: 10
- Blackgrass plant response rating (0-100) [13, 29]: 0
- Blackgrass plant response rating (0 to 100 scale) [13, 30]: 0
- Corn plant response rating (0-100) (corn (Zea mays) [14]; [29]): 0
- Corn plant response rating (0 to 100 scale) (corn (Zea mays) [14]; [30]): 0
- Galium plant response rating (0-100) [15, 29]: 0
- Galium plant response rating (0 to 100 scale) [15, 30]: 0
- Foxtail, Green plant response rating (0-100) [16, 29]: 0
- Foxtail, Green plant response rating (0 to 100 scale) [16, 30]: 0
- Horseweed plant response rating (0-100) [17, 29]: 0
- Horseweed plant response rating (0 to 100 scale) [17, 30]: 0
- Kochia plant response rating (0-100) (kochia (Bassia scoparia) [18]; [29]): 0
- Kochia plant response rating (0 to 100 scale) (kochia (Bassia scoparia) [18]; [30]): 0
- Oat, Wild plant response rating (0-100) [19, 29]: 0
- Oat, Wild plant response rating (0 to 100 scale) [19, 30]: 0
- Pigweed, Palmer plant response rating (0-100) [20, 29]: 0
- Pigweed, Palmer plant response rating (0 to 100 scale) [20, 30]: 0
- Ragweed plant response rating (0-100) [21, 29]: 0
- Ragweed plant response rating (0 to 100 scale) [21, 30]: 0
- Ryegrass, Italian plant response rating (0-100) [22, 29]: 0
- Ryegrass, Italian plant response rating (0 to 100 scale) [22, 30]: 0
- Soybean plant response rating (0-100) (soybean (Glycine max) [23]; [29]): 0
- Soybean plant response rating (0 to 100 scale) (soybean (Glycine max) [23]; [30]): 0
- Wheat plant response rating (0-100) [24, 29]: 0
- Wheat plant response rating (0 to 100 scale) [24, 30]: 0
- Plant response rating, Barnyardgrass (0 to 100 scale, 0 is no effect and 100 is complete control) [25]: 0
- Plant response rating, Ducksalad (0 to 100 scale, 0 is no effect and 100 is complete control) [26]: 0
- Plant response rating, Rice (0 to 100 scale, 0 is no effect and 100 is complete control) (rice (Oryza sativa)): 0
- Plant response rating, Sedge, Umbrella (0 to 100 scale, 0 is no effect and 100 is complete control) [27]: 0
